Measurements reported in ChEMBL document CHEMBL1201862, “PubChem BioAssay data set” (2004).
“And” between values parts separate entries of the source, which are not always exact repeats. Equal entries are not always repeated.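 Method: 48-hour compound exposure of cells in 96-well plates, five concentrations, linear interpolation of endpoints. GI50 is the concentration that inhibits growth by half.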 The source made the active and inactive calls. No stated cut-off is given here; in the data, active = GI50 up to about 1.1 µM and inactive = higher.

What was measured:
Experiment in all cases: growth of human tumour cells (NCI), 48 h
786-0 = system: 786-0
A498 = system: A498
A549 = system: A549
ACHN = system: ACHN
CAKI-1 = system: CAKI-1
CCRF-CEM = system: CCRF-CEM
COLO 205 = system: COLO 205
DMS-114 = system: DMS-114
DMS-273 = system: DMS-273
EKVX = system: EKVX
HCC 2998 = system: HCC 2998
HCT-15 = system: HCT-15
HOP-62 = system: HOP-62
HOP-92 = system: HOP-92
IGROV-1 = system: IGROV-1
K562 = system: K562
KM-20L2 = system: KM-20L2
LXFL 529 = system: LXFL 529
M14 = system: M14
M19-MEL = system: M19-MEL
MOLT-4 = system: MOLT-4
Malme-3M = system: Malme-3M
NCI-H522 = system: NCI-H522
OVCAR-3 = system: OVCAR-3
OVCAR-8 = system: OVCAR-8
RXF 631 = system: RXF 631
SF-268 = system: SF-268
SF-295 = system: SF-295
SF-539 = system: SF-539
SK-MEL-5 = system: SK-MEL-5
SK-OV-3 = system: SK-OV-3
SN12C = system: SN12C
SNB-19 = system: SNB-19
SNB-78 = system: SNB-78
SR = system: SR
SW-620 = system: SW-620
U-251 = system: U-251
UO-31 = system: UO-31
BT-549 = system: BT-549
DU-145 = system: DU-145
MDA-MB-435 = system: MDA-MB-435
MDA-N = system: MDA-N
NCI-H226 = system: NCI-H226
NCI-H460 = system: NCI-H460
NCI/ADR-RES = system: NCI/ADR-RES
OVCAR-5 = system: OVCAR-5
T47D = system: T47D
XF498 = system: XF498
DLD-1 = system: DLD-1
HCT-116 = system: HCT-116
HL-60 = system: HL-60
HOP-18 = system: HOP-18
HT-29 = system: HT-29
KM12 = system: KM12
NCI-H23 = system: NCI-H23
RPMI-8226 = system: RPMI-8226
RXF 393 = system: RXF 393
SK-MEL-28 = system: SK-MEL-28
SK-MEL-2 = system: SK-MEL-2
SNB-75 = system: SNB-75
TK-10 = system: TK-10
UACC-257 = system: UACC-257
UACC-62 = system: UACC-62

Measured: GI50

CC(C)N(C(=O)C12C3C4C1C1C2C3C41C(N)=O)C(C)C (stereo not drawn)
inactive: 786-0 > 100 µM | A498 > 100 µM | A549 > 100 µM | ACHN > 100 µM | CAKI-1 > 100 µM | CCRF-CEM > 100 µM | COLO 205 > 100 µM | DMS-114 > 100 µM | DMS-273 > 100 µM | EKVX > 100 µM | HCC 2998 > 100 µM | HOP-62 > 100 µM | HOP-92 > 100 µM | IGROV-1 > 100 µM | K562 > 100 µM | KM-20L2 > 100 µM | LXFL 529 > 100 µM | M14 > 100 µM | M19-MEL > 100 µM | MOLT-4 > 100 µM | Malme-3M > 100 µM | NCI-H522 > 100 µM | OVCAR-3 > 100 µM | OVCAR-8 > 100 µM | RXF 631 > 100 µM | SF-268 > 100 µM | SF-295 > 100 µM | SF-539 > 100 µM | SK-MEL-5 > 100 µM | SK-OV-3 > 100 µM | SN12C > 100 µM | SNB-19 > 100 µM | SNB-78 > 100 µM | SR > 100 µM | SW-620 > 100 µM | U-251 > 100 µM | UO-31 > 100 µM
> 100 µM: HCT-15

O=C1C(CN(Cc2ccccc2)Cc2ccccc2)CCCC1CN(Cc1ccccc1)Cc1ccccc1 (stereo not drawn)
inactive: A498 > 78.9 µM and 41.5 µM | A549 > 54.5 µM | BT-549 > 100 µM and > 79.8 µM | DU-145 > 100 µM | HCC 2998 > 53.2 µM and > 69.7 µM | HOP-62 > 62.1 µM | HOP-92 16.7 µM and 27.3 µM | IGROV-1 69.5 µM and > 45.7 µM | MDA-MB-435 > 100 µM and > 92.3 µM | MDA-N > 76 µM | NCI-H226 > 68.7 µM and 52.1 µM | NCI-H460 > 87.3 µM and 43.9 µM | NCI/ADR-RES > 100 µM and > 89.1 µM | OVCAR-5 34.8 µM and > 65.3 µM | RXF 631 > 100 µM | SF-295 44.9 µM and 35.9 µM | SK-MEL-5 > 42.5 µM and 66.8 µM | SK-OV-3 > 61.1 µM and 44.5 µM | SNB-19 > 57 µM | T47D > 100 µM | XF498 15.1 µM

Clc1cc(Cl)cc(C2SCc3nc4ccccc4n32)c1 (stereo not drawn)
inactive: 786-0 15.6 µM | A549 19.6 µM | ACHN 22.9 µM | CAKI-1 14.9 µM | CCRF-CEM 9.79 µM | COLO 205 18.2 µM | DLD-1 > 10 µM | DMS-114 13.6 µM | DMS-273 7.28 µM | EKVX 22.6 µM | HCC 2998 > 10 µM | HCT-116 > 10 µM | HL-60 4.31 µM | HOP-18 28.4 µM | HOP-92 14.4 µM | HT-29 12 µM | K562 3.82 µM | KM12 13.6 µM | LXFL 529 14.4 µM | MOLT-4 11.7 µM | Malme-3M 15.8 µM | NCI-H226 19.9 µM | NCI-H23 17 µM | NCI-H460 14.3 µM | NCI-H522 14.3 µM | OVCAR-3 16.9 µM | OVCAR-5 18.1 µM | OVCAR-8 17 µM | RPMI-8226 11.5 µM | RXF 393 14.6 µM | RXF 631 14.2 µM | SF-268 20.4 µM | SF-295 14.5 µM | SF-539 11.1 µM | SK-MEL-28 13.8 µM | SK-MEL-2 17.6 µM | SK-MEL-5 12.7 µM | SK-OV-3 22.8 µM | SN12C 15.2 µM | SNB-19 20.7 µM | SNB-75 43.4 µM | SNB-78 6.03 µM | SR 17.2 µM | SW-620 11 µM | TK-10 27.7 µM | U-251 14 µM | UACC-257 15.2 µM | UACC-62 21.5 µM | UO-31 19.3 µM
